Test [1] deals with C57Bl/6J mice on a high-fat diet. Conditions: cited from earlier work.
Another test has as its system PI3K. In words: Ex vivo ischemia reperfusion with PI3K inhibitor LY294002, pAKT Western blot. Set-up: species or system mice. Conditions: WT hearts; LY294002 15 μM prior to global ischemia. A general note: A western blot detects proteins with antibodies after separation by electrophoresis.
The next test concerns the target recombinant Nampt (Homo sapiens, UniProt P43490). Nature of the test: Recombinant Nampt enzymatic activity assay. Conditions: enzyme assay with recombinant Nampt.

Each structure is given as a SMILES string.

recombinant Nampt, sequence (P43490 whole entry): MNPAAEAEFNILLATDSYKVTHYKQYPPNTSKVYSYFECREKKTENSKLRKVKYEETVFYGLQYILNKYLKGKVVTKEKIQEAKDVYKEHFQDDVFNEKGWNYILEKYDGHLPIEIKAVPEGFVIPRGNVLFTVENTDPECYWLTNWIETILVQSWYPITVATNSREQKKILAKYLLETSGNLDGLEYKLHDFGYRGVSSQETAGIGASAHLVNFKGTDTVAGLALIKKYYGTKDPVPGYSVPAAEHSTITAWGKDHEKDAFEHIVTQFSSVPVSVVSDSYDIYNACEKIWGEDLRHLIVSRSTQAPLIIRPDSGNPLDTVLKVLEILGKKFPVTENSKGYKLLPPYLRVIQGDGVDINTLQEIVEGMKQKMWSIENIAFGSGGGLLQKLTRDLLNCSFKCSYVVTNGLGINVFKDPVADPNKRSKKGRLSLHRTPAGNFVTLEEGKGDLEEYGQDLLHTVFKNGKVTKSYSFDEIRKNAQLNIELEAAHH

For `COc1cccc(NCC(F)Cn2c3ccc(Br)cc3c3cc(Br)ccc32)c1` (stereo not drawn) [P7C3 A20], the fatty liver syndrome entry in test [1] is “rescued”.

Turning to `Cl.O=c1cc(N2CCOCC2)oc2c(-c3ccccc3)cccc12` [LY294002, 2-(4-Morpholinyl)-8-phenyl-1(4H)-benzopyran−4-one hydrochloride], the “P7C3 based pAkt expression” value with PI3K is recorded as “attenuated”.

On to `O=C(/C=C/c1cccnc1)NCCCCC1CCN(C(=O)c2ccccc2)CC1` [FK866], for which, at recombinant Nampt, the Nampt activity entry is “significantly decreased”.

The values above are taken from patent US20220370636A1, “NICOTINAMIDE ADENINE DINUCLEOTIDE ACTIVATOR AND USE THEREOF” (University of South Florida, priority 2021, published 2022).
